The test system of one data set is HeLa. Put plainly: Antiproliferative activity against human HeLa cells assessed as reduction in cell viability incubated for 24 hrs by MTT assay. The class given is functional, cell-based. For orientation: Tetrazolium assays rely on reduction of a dye to a coloured formazan, in cell work by metabolically active cells.
Data set [1] deals with von Hippel-Lindau disease tumor suppressor/Epidermal growth factor receptor (Homo sapiens), P00533+P40337 [UNDEFINED MUTATION]. Put plainly: PROTAC activity at VHL/EGFR del19 mutant in human HCC827 cells assessed as maximal degradation incubated for 24 hrs by immunoblot analysis relative to control. Type of data set: cell-based.
Data set [2] addresses T1, Protein cereblon/ALK tyrosine kinase receptor (Homo sapiens, UniProt Q9UM73+Q96SW2). Put plainly: PROTAC activity at CRBN/ALK in human NCI-H3122 cells assessed as induction of ALK degradation incubated for 24 hrs by Western blot analysis. Type of data set: cell-based.
Target sequence in this assay (Q9UM73 whole entry): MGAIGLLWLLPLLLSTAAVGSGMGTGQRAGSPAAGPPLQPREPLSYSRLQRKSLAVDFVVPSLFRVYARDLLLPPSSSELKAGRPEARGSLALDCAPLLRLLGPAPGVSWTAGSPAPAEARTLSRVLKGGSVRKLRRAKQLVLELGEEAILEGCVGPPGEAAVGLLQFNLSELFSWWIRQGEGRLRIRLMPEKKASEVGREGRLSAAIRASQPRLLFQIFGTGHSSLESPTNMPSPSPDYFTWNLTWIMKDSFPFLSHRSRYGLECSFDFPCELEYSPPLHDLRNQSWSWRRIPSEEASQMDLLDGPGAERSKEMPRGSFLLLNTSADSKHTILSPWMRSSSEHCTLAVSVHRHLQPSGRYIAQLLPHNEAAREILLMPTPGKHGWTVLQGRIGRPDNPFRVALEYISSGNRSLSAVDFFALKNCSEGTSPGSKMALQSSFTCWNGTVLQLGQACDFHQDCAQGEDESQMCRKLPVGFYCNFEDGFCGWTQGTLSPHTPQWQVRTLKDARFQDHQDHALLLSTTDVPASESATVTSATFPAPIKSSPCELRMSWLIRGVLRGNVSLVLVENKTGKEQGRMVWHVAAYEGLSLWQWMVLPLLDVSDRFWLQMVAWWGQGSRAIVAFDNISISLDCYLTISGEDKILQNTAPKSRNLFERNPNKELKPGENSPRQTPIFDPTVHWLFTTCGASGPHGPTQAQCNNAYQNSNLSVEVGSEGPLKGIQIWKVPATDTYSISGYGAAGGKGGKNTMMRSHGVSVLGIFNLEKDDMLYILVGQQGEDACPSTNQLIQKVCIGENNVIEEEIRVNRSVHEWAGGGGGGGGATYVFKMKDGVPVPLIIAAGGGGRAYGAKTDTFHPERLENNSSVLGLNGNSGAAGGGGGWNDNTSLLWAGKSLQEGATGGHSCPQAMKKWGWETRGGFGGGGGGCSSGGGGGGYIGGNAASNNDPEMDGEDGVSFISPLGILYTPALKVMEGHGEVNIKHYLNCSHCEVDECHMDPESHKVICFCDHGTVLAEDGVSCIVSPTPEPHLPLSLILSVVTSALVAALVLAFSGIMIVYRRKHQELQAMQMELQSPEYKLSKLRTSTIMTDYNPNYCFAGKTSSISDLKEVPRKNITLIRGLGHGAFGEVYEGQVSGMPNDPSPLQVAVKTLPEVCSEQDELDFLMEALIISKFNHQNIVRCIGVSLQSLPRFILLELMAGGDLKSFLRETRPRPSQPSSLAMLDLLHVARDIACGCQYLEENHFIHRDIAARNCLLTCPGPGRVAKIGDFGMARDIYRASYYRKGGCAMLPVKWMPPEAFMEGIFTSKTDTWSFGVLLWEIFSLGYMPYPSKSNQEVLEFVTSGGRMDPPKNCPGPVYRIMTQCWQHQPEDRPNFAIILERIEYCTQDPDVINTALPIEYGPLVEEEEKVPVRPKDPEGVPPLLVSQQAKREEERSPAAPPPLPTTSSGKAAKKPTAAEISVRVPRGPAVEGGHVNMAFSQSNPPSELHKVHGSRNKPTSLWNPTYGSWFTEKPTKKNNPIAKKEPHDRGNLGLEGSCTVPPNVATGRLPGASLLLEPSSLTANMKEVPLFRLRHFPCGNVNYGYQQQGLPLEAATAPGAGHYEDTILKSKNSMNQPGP
Target sequence in this assay (Q96SW2 whole entry): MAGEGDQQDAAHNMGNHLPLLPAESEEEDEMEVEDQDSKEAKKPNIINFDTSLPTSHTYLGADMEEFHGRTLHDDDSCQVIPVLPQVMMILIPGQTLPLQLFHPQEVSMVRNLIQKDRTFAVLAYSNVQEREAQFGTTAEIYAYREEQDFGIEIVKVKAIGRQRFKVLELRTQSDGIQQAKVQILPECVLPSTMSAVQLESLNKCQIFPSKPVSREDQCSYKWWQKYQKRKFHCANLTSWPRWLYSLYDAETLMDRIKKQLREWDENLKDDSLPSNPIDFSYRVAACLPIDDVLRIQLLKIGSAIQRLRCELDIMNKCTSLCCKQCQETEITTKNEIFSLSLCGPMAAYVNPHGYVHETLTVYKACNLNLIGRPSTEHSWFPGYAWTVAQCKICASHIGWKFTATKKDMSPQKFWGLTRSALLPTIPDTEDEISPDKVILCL
Data set [3] deals with Protein cereblon/Cyclin-dependent kinase 9 (Homo sapiens) (UniProt P50750+Q96SW2). Put plainly: Protac activity at CRBN/CDK9 in human HeLa cells assessed as […] at 1 uM measured after 6 hrs by Western blot analysis. The class given is cell-based. (Immunoblotting shows a protein as a band on a membrane.)
Data set [4] addresses Von Hippel-Lindau disease tumor suppressor/Elongin B/Elongin C (Homo sapiens, UniProt P40337). Put plainly: Inhibition of 6xHis-tagged VHL (1 to 213 residues)/Elongin B/Elogin C (unknown origin) expressed in Escherichia coli BL21 cells by fluorescence polarization assay.
Data set [5] in a line: AUC (0 to t) in ICR mouse at 2 mg/kg, iv. To be noted: in vivo. Type of data set: ADME, organism-based.
Data set [6] addresses T2, Protein cereblon/Receptor-type tyrosine-protein kinase FLT3 (Homo sapiens, UniProt P36888+Q96SW2). Put plainly: PROTAC activity at CRBN/FLT3-ITD mutant in human MV4-11 cells assessed as protein degradation by Western blot analysis. The class given is cell-based.
The target in data set [7] is T2, Protein cereblon/Receptor-type tyrosine-protein kinase FLT3. Put plainly: PROTAC activity at CRBN/FLT3 in human MV4-11 cells harboring FLT3-ITD mutation assessed as induction of FLT3 degradation incubated for 24 hrs by immunoblotting analysis. The class given is cell-based.
Data set [8] addresses T3, von Hippel-Lindau disease tumor suppressor/Mitogen-activated protein kinase 14 (Homo sapiens, UniProt Q16539+P40337). Put plainly: PROTAC activity at VHL/N-terminal His-tagged human p38alpha in MDA-MB-231 cells assessed as p38alpha degradation. The class given is cell-based.
The target of data set [9] is E3 ubiquitin-protein ligase Mdm2/Histone deacetylase 1 (Homo sapiens) (UniProt Q00987+Q13547). Put plainly: PROTAC activity at MDM2/HDAC1 in human HCT-116 cells assessed as induction of HDAC1 degradation at 10 uM by Western blot analysis relative to control. Type of data set: cell-based.
The next data set concerns A549. Put plainly: Cytotoxicity against human A549 cells assessed as reduction in cell growth incubated for 5 days by MTT assay. Type of data set: functional, cell-based. Particulars: A549, 120 h.
The target in data set [10] is T3, von Hippel-Lindau disease tumor suppressor/Mitogen-activated protein kinase 14. Put plainly: PROTAC activity at VHL/N-terminal His-tagged human p38alpha in T47D cells assessed as p38alpha degradation. Type of data set: cell-based.
Data set [11] concerns the target Protein cereblon/Androgen receptor (Homo sapiens, UniProt P10275+Q96SW2). Put plainly: PROTAC activity at AR/CRBN in human A549 cells assessed as induction of androgen receptor degradation measured after 1 hr by Western blot analysis. Type of data set: cell-based.
In data set [12] the target is T1, Protein cereblon/ALK tyrosine kinase receptor. Put plainly: PROTAC activity at CRBN/ALK in human NCI-H3122 cells assessed as induction of ALK degradation by measuring maximal degradation at […] incubated for 24 hrs by Western blot analysis. The class given is cell-based.

Bounds are passed on as bounds.

T3 sequence (Q16539 whole entry): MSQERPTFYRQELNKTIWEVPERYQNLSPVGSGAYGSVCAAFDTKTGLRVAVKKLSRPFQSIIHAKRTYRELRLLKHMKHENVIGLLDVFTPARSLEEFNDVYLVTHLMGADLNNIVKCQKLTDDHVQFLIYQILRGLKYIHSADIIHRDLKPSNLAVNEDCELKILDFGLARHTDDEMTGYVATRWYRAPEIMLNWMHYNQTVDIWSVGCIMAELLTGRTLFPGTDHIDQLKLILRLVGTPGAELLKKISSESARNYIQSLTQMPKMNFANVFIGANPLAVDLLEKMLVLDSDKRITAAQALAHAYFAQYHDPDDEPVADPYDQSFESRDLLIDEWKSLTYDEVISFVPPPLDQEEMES
T3 sequence (P40337 whole entry): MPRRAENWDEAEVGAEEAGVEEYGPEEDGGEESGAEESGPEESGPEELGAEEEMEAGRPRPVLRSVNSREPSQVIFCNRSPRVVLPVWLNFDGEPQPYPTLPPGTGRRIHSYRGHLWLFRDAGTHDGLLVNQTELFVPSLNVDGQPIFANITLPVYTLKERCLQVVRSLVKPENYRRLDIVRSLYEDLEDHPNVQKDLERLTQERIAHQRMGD
T2 sequence (P36888 whole entry, looked up, change not shown): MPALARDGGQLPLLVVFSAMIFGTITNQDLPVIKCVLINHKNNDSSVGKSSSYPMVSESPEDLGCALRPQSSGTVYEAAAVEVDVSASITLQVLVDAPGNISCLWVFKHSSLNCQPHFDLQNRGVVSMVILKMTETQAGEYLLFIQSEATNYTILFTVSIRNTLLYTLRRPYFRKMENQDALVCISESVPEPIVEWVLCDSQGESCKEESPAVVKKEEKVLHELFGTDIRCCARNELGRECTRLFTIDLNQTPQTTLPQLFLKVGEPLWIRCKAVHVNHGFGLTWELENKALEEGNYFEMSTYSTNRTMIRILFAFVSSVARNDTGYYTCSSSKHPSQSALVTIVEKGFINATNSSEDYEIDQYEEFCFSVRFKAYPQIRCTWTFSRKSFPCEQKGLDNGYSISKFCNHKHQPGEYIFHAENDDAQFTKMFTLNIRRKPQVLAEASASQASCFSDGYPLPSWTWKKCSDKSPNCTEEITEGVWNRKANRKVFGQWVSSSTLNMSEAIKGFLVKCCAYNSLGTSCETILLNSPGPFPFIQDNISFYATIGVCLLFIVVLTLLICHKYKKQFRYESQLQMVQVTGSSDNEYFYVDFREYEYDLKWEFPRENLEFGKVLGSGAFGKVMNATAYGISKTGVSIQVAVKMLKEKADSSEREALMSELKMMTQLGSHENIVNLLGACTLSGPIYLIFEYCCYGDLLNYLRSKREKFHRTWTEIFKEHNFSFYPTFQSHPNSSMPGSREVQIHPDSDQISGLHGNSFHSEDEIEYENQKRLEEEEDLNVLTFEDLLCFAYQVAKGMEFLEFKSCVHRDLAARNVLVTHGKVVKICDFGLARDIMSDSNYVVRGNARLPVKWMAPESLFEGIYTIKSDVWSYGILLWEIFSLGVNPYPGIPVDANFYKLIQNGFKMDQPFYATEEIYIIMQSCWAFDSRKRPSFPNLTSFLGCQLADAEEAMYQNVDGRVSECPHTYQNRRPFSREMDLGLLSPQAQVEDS
T2 sequence (Q96SW2 whole entry, looked up, change not shown): as the sequence (Q96SW2 whole entry) above
Sequence of E3 ubiquitin-protein ligase Mdm2/Histone deacetylase 1 (Homo sapiens) (Q00987 whole entry, looked up): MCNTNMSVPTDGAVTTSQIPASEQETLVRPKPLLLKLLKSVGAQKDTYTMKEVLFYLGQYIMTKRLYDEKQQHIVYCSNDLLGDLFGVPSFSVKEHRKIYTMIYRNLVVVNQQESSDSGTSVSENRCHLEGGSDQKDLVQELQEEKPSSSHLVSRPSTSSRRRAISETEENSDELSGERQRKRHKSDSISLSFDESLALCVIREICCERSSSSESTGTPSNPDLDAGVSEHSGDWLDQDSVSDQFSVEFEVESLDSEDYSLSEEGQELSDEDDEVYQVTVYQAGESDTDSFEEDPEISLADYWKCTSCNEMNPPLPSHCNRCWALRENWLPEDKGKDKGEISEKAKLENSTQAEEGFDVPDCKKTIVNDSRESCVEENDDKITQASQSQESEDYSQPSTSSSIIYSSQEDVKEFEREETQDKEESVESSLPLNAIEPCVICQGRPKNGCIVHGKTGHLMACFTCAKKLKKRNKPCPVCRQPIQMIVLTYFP
Sequence of E3 ubiquitin-protein ligase Mdm2/Histone deacetylase 1 (Homo sapiens) (Q13547 whole entry, looked up): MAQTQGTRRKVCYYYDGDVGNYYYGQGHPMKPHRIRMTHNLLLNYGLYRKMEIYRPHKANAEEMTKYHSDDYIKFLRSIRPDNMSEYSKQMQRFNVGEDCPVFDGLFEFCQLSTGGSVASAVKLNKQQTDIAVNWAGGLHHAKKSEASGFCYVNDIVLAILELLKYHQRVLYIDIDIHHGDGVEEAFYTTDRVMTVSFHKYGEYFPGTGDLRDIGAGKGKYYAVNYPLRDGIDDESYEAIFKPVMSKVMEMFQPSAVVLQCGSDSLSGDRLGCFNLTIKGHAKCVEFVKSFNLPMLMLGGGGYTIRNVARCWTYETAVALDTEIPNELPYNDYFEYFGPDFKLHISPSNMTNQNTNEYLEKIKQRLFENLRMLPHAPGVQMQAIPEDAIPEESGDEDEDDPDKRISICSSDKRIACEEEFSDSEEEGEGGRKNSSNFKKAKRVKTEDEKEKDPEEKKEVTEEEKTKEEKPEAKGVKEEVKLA
Sequence of Von Hippel-Lindau disease tumor suppressor/Elongin B/Elongin C (P40337 whole entry, looked up, the tested form may be a part): as the sequence (P40337 whole entry) above

The term IC50 denotes the concentration needed to halve the response being measured. Take `CC1(NCc2cn(CCOCCOCCOCCOCCNc3cccc4c3C(=O)N(C3CCC(=O)NC3=O)C4=O)nn2)CCN(c2cnc(-c3cccc(Cl)c3Cl)c(N)n2)CC1` (configuration not stated): the concentration for half-maximal inhibition (IC50) with HeLa was found to be 4300 nM.
For `Cc1ncsc1-c1ccc(CNC(=O)[C@@H]2C[C@@H](O)CN2C(=O)[C@@H](NC(=O)CCCCCCCCCCn2cc(COc3cc4ncnc(Nc5ccc(F)c(Cl)c5)c4cc3NC(=O)/C=C/CN3CCCCC3)nn2)C(C)(C)C)cc1`, the Emax in data set [1] is 91%.
As usually defined, the DC50 is the midpoint of the concentration-degradation curve. For `N#Cc1cccc(-c2ccc(=O)n(Cc3cccc(-c4ncc(OCC5CCN(CC(=O)N6CCN(CCNc7ccc8c(c7)C(=O)N(C7CCC(=O)NC7=O)C8=O)CC6)CC5)cn4)c3)n2)c1` (configuration not stated), in data set [2], the DC50 was determined as 0.6 nM.
On to `O=C1CCC(N2C(=O)c3cccc(NC(=O)CCCCCCCn4cc(COc5c(O)cc(O)c6c(=O)cc(-c7ccccc7)oc56)nn4)c3C2=O)C(=O)N1` (configuration not stated), for which the Emax in data set [3] is 61.2%.
For the compound `CCCS(=O)(=O)Nc1ccc(F)c(C(=O)c2c[nH]c3ncc(-c4ccc(N5CCN(CC(=O)N[C@H](C(=O)N6C[C@H](O)C[C@H]6C(=O)NCc6ccc(-c7scnc7C)cc6)C(C)(C)C)CC5)cc4)cc23)c1F`, the IC50 in data set [4] amounted to 6.8 nM.
By AUC(0-t) is commonly meant the area under the concentration-time curve up to a stated or last time point. Read a high AUC(0-t) as more exposure. Consider `NC(=O)c1cccc2cn(-c3ccc(C4CCCN(CCC5CCN(CCC6CCN(c7ccc8c(c7)C(=O)N(C7CCC(=O)NC7=O)C8=O)CC6)CC5)C4)cc3)nc12` (configuration not stated), for which, in data set [5], the exposure AUC(0-t) was found to be 24500 ng·h/mL.
With `CC(C)(C)c1cc(NC(=O)Nc2ccc(-c3cn(CCCCc4cn(CCCCC(=O)Nc5cccc6c5CN(C5CCC(=O)NC5=O)C6=O)nn4)c4ncnc(N)c34)cc2)no1` (configuration not stated), the DC50 was found to be 76.7 nM in [6] and 7850 nM in data set [7].
For `Cc1ccc(C(=O)NCCCc2cn(CCCC(=O)NCCCCCC(=O)N[C@H](C(=O)N3C[C@H](O)C[C@H]3C(=O)N[C@@H](C)c3ccc(-c4scnc4C)cc3)C(C)(C)C)nn2)cc1-n1c(C)cc(OCc2ccc(F)cc2F)c(Br)c1=O`, the 50% degradation concentration (DC50) in [8] worked out at 11.6 nM.
As to `COC(C)(C)CCC[C@@](C)(O)[C@H]1CC[C@]2(C)[C@@H]1[C@H](O)C[C@@H]1[C@@]3(C)CC[C@H](OCC(=O)N4CCC(CN5CCN(c6ccc7c(c6)CN(C6CCC(=O)NC6=O)C7=O)CC5)CC4)C(C)(C)[C@@H]3CC[C@]12C` (some centres not stated), the Emax in data set [9] was found to be 65.4%. The IC50 in the data set on A549 was determined as 2160 nM.
Regarding `C=C1c2cccc(NCCCCCCNC(=O)CCCn3cc(CCCCNC(=O)c4ccc(C)c(-n5c(C)cc(OCc6ccc(F)cc6F)c(Br)c5=O)c4)nn3)c2C(=O)N1C1CCC(=O)NC1=O` (configuration not stated), the DC50 in [8] was found to be 18.4 nM; in data set [10] it was 2.9 nM.
As to `CC1(C)C(=O)N(c2ccc(C#N)c(C(F)(F)F)c2)C(=S)N1c1ccc(-c2ccc(O[C@@H]3CCN(C(=O)C4CCN(c5ccc6c(c5)C(=O)N(C5CCC(=O)NC5=O)C6=O)CC4)C3)cc2)cc1` (some centres not stated), in data set [11], the half-maximal degradation concentration (DC50) was found to be 75 nM.
Consider `N#Cc1cccc(-c2ccc(=O)n(Cc3cccc(-c4ncc(OCC5CCN(CC(=O)N6CCN(c7ccc8c(c7)C(=O)N(C7CCC(=O)NC7=O)C8=O)CC6)CC5)cn4)c3)n2)c1` (configuration not stated), for which the DC50 in data set [2] was 0.35 nM.
Take `N#Cc1cccc(-c2ccc(=O)n(Cc3cccc(-c4ncc(OCC5CCN(CC(=O)NCCOCNc6ccc7c(c6)C(=O)N(C6CCC(=O)NC6=O)C7=O)CC5)cn4)c3)n2)c1` (configuration not stated): the Emax in [12] is more than 99%. Moreover, the DC50 in data set [2] was determined as 0.77 nM.
